The source made the active and inactive calls. The rule behind the calls is not given here.
What was measured:
[1] = biological target: Tubulin beta (Homo sapiens) (UniProt P68371+Q9H4B7+Q13509+P04350+Q3ZCM7+P07437+Q13885+Q9BVA1+Q9BUF5+A6NNZ2); test: Binding affinity to beta-tubulin colchicine binding site in human KYSE-30 cells assessed as inhibition of tubulin-EBI adduct formation by EBI addition by Western blotting analysis; type: cell-based
KYSE-450 [2] = test: Inhibition of colony formation in human KYSE-450 cells at 0.188 to 0.313 uM after 7 days by crystal violet staining based assay; type: functional, cell-based; details: dose 0.188-0.313 µM, time 7.0 day
Tubulin (Homo sapiens) [3] = biological target: T1, Tubulin (Homo sapiens) (UniProt P68371+Q9H4B7+P0DPH7+P68366+Q13509+Q71U36+P04350+Q3ZCM7+P07437+P68363+Q9BQE3+Q6PEY2+Q13885+Q9BVA1+Q9BUF5); test: Inhibition of tubulin polymerization in human KYSE-30 cells at 1.25 uM by immunofluorescence assay; type: cell-based
Tubulin (Homo sapiens) [4] = biological target: T1, Tubulin (Homo sapiens); test: Inhibition of tubulin polymerization in human KYSE-450 cells assessed as reduction in cell viability upto 48 hrs; type: cell-based; details: time hrs <=48, TDE = time-dependent effect
Tubulin (Homo sapiens) [5] = biological target: T1, Tubulin (Homo sapiens); test: […] of tubulin polymerization in human KYSE-450 cells assessed as inhibition of cell growth after 48 hrs relative to control; type: cell-based
KYSE-450 [6] = test: Induction of cell morphological changes in human KYSE-450 cells measured after 48 hrs; type: functional, cell-based
Tubulin (Homo sapiens) [7] = biological target: T1, Tubulin (Homo sapiens); test: Inhibition of tubulin polymerization in human KYSE-30 cells by immunofluorescence assay; type: cell-based
Tubulin (Homo sapiens) [8] = biological target: T1, Tubulin (Homo sapiens); test: Inhibition of tubulin polymerization in human KYSE-30 cells assessed as reduction in cell viability; type: cell-based
MGC-803 = test: Antiproliferative activity against human MGC-803 cells incubated for 48 hrs by CCK8 assay; type: functional, cell-based; details: MGC-803, 48 h

| Activity [1] | inhibition (Tubulin (Homo sapiens) [3]) | Activity (Tubulin (Homo sapiens) [5]) | inhibition (Tubulin (Homo sapiens) [7]) | IC50 (MGC-803) | SMILES | inhibition (KYSE-450 [2]) | inhibition (Tubulin (Homo sapiens) [4]) | Activity (KYSE-450 [6]) | inhibition (Tubulin (Homo sapiens) [8]) |
| --- | --- | --- | --- | --- | --- | --- | --- | --- | --- |
| Active | Active | Dose-Dependent Effect | Dose-Dependent Effect |  | COc1cc(C(=O)N2CCc3cc(Br)ccc32)cc(OC)c1OC | Active | Tde | Active | Dose-Dependent Effect |
|  |  |  |  | 32.8 µM | O=C(Cc1ccccc1)N1CCc2cc(Br)ccc21 |  |  |  |  |
